Test results from patent EP0186977A2, “Renin-inhibitory dipeptides, their preparation and use” (SANKYO COMPANY LIMITED, priority 1984, dated 1986).

Target: T1, human renin (Homo sapiens, UniProt P00797)
T1 sequence (P00797 67-406): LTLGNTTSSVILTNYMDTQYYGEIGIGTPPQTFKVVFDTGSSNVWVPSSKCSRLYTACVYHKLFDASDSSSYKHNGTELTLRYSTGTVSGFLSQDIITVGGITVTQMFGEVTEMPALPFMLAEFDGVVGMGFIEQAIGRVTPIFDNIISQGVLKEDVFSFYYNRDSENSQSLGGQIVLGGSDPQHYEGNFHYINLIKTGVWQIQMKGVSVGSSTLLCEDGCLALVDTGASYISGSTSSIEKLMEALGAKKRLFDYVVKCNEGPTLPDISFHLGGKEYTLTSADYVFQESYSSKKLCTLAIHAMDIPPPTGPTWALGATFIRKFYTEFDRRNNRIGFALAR
Assay: Inhibition of renin activity (human renin with sheep angiotensinogen, assay of remaining angiotensin I)
Format: biochemical
Settings: 1 x 10 ^6M of the test compound, phosphate buffer pH 7.3, 10 minutes at 37°C, mean of 3 or 4 experiments
Method: The ability of various compounds of the invention to inhibit the activity of renin was determined according to the following method, which follows essentially the procedure of Kokubu et al. [Hypertension, 5, 191-197 (1983)].
Specifically, each test compound was dissolved in 60% v/v aqueous ethanol. Human renin activity in the presence and absence of each compound was measured using sheep angiotensinogen. The total volume of 1 ml of assay mixture contained 0.1 mole/litre phosphate buffer (pH 7.3), human renin (equivalent to 0.5 ng angiotensin I per ml per minute), sheep angiotensinogen (equivalent to 200 ng angiotensin 1), 1 x 10 ^6M of the test compound, 6% v/v ethanol and angiotensinase inhibitors (10 mmole/litre sodium ethylenediaminetetraacetate and 3.4 mmole/litre 8-hydroxyquinoline). The mixture was allowed to react for 10 minutes at 37°C, and then the reaction was stopped by placing the reaction tube in a boiling water bath for 5 minutes. The mixture was then centrifuged and the supernatant (0.05-0.1 ml) was used to assay remaining angiotensin I.
An identical experiment was carried out, as a control, except that the test compound was omitted. From the values obtained were calculated the % inhibition of renin activity achieved by each test compound. The results are shown in the following Table, in which the compounds of the invention are identified by the numbers assigned to them in the foregoing list. The values given are the mean of 3 or 4 experiments.
The isomers of these test compounds employed in these experiments are those isomers prepared as described in the subsequent Examples.

| SMILES | inhibition at 1 µM [%] |
| --- | --- |
| CC[C@H](C)[C@@H](CO)NC(=O)C[C@H](O)[C@H](CC(C)C)NC(=O)[C@H](CCSC)NC(=O)C(Cc1cccc2ccccc12)Cc1cccc2ccccc12 [Compound No. 196, N-[4(S)-{N-[Bis(1-naphthylmethyl)acetyl]-L-methionyl-amino}-3(S)-hydroxy-6-methylheptanoyl]-L-isoleucinol] | 93.5 |
| CC[C@H](C)CNC(=O)C[C@H](O)[C@H](CC(C)C)NC(=O)[C@H](Cc1c[nH]cn1)NC(=O)C(Cc1cccc2ccccc12)Cc1cccc2ccccc12 [Compound No. 74, 4(S)-{N-[Bis(1-naphthylmethyl)acetyl]-L-histidyl-amino}-3(S)-hydroxy-6-methyl-N-[2(S)-(-)-methylbutyl]-heptanamide] | 98.2 |
| CCCCCCCC(NC(=O)C(Cc1cccc2ccccc12)Cc1cccc2ccccc12)C(=O)N[C@@H](CC(C)C)[C@@H](O)CC(=O)N[C@H](CO)[C@@H](C)CC (stereo partly drawn) [Compound No. 286, N-[4(S)-{2(RS)-(Bis(1-naphthylmethyl)acetyl]amino-nonanovl}amino-3(S)-hydroxv-6-methylheptanoyl]-L-isoleucinol] | 99 |
| CC[C@H](C)[C@@H](CO)NC(=O)C[C@H](O)[C@H](CC(C)C)NC(=O)[C@H](CCC(N)=O)NC(=O)C(Cc1cccc2ccccc12)Cc1cccc2ccccc12 [compound 208, N-[4(S)-{N-[Bis(1-naphthylmethyl)acetyl]-L-glutaminylamino}-3(S)-hydroxy-6-methylheptanoyl]-L-isoleucinol] | 93 |
| CCCC[C@H](NC(=O)C(Cc1cccc2ccccc12)Cc1cccc2ccccc12)C(=O)N[C@@H](CC(C)C)[C@@H](O)CC(=O)N[C@H](CO)[C@@H](C)CC [Compound No. 88, N-[4(S)-{N-[Bis(1-naphthylmethyl)acetyl]-L-norleucylamino}-3(S)-hydroxy-6-methylheptanoyl]-L-isoleucinol] | 99 |
| CC[C@H](C)[C@@H](CO)NC(=O)C[C@H](O)[C@H](CC(C)C)NC(=O)[C@H](Cc1c[nH]cn1)NC(=O)C(Cc1cccc2ccccc12)Cc1cccc2ccccc12 [Compound No. 72, N-[4(S)-{N-[Bis(1-naphthylmethyl)acetyl]-L-histidylamino}-3(S)-hydroxy-6-methylheptanoyl]-L-isoleucinol] | 99 |
| C=CCC(NC(=O)C(Cc1cccc2ccccc12)Cc1cccc2ccccc12)C(=O)N[C@@H](CC(C)C)[C@@H](O)CC(=O)N[C@H](CO)[C@@H](C)CC (mixture of isomers) [compound 291, N-[4(S)-{N-[Bis(1-naphthylmethyl)acetyl]-DL-allylglycylamino}-3(S)-hydroxy-6-methylheptanoyl]-L-isoleucinol] | 99 |
| CCOCCNC(=O)C[C@H](O)[C@H](CC(C)C)NC(=O)[C@H](CC(C)C)NC(=O)C(Cc1cccc2ccccc12)Cc1cccc2ccccc12 [compound 45, 4(S)-{N-[Bis(1-naphthylmethyl)acetyl]-L-leucylamino}-3(S)-hydroxv-6-methvl-N-(2-ethoxyethvl)heptanamide] | 99 |
| CCCCCC(NC(=O)C(Cc1cccc2ccccc12)Cc1cccc2ccccc12)C(=O)N[C@@H](CC(C)C)[C@@H](O)CC(=O)NCC(C)CC (stereo partly drawn) [compound 274] | 99 |
| CC[C@H](C)[C@@H](CO)NC(=O)C[C@H](O)[C@H](CC(C)C)NC(=O)[C@H](CCC(=O)O)NC(=O)C(Cc1cccc2ccccc12)Cc1cccc2ccccc12 [compound 212] | 92 |
| CC(C)C[C@H](NC(=O)C(CCCCc1ccccc1)Cc1cccc2ccccc12)C(=O)N[C@@H](CC(C)C)[C@@H](O)CC(=O)NCCN1CCOCC1 (stereo partly drawn) [compound 15] | 93.5 |
| CC[C@H](C)[C@@H](CO)NC(=O)C[C@H](O)[C@H](CC(C)C)NC(=O)C(Cc1cscn1)NC(=O)C(Cc1cccc2ccccc12)Cc1cccc2ccccc12 (mixture of isomers) [Compound No. 223, N-[4(S)-{N-[Bis(1-naphthylmethyl)acetyl]-3-(4-thiazolyl)-DL-alanylamino}-3(S)-hydroxy-6-methyl-heptanoyl]-L-isoleucinol] | 95 |
